In patent US9567342B2, “Certain protein kinase inhibitors” (SHANGHAI FOCHON PHARMACEUTICAL CO., LTD., priority 2012, dated 2017):

Key:
SU-DHL-1 cells = assay: Inhibition activity of cell proliferation (CCK-8 assay); format: cell-based; details: Homo sapiens, 72 h exposure
Description: SU-DHL-1 cells were seeded in 96-well tissue culture plates. On the next day, cells were exposed to various concentrations of compounds and further cultured for 72 h. Cell proliferation was then determined using Cell Counting Kit-8 [(CCK-8), Dojindo]assay. Briefly, add 10 μL of the CCK-8 solution to each well of the plate. Incubate the plate for 1-4 hours in the incubator. Measure the absorbance at 450 nm using a multi-well spectrophotometer (SpectraMAX 190, Molecular Devices). The inhibition rate (%) was calculated using the following equation: [1−(A450 Compound/A450 Control)]×100%. IC50 values were calculated according to inhibition curve by four-parameter fit.

NCI-H2228 cells = assay: In vivo antitumor activity, NCI-H2228 cells implanted sc in nude mice; details: QD, oral, NCI-H2228 xenograft
Description: Male nude mice (6-week old) were housed in a specific pathogen-free room with a 12 h light/dark schedule at 20-25° C. and were fed an autoclaved chow diet and water ad libitum.
NCI-H2228 cells at a density of […] in 200 μL were first implanted sc into the right flank of each nude mice and then allowed to grow to above 230 mm^3, the mice were randomly assigned into control and treatment groups (n=6 per group for compound treated group, n=12 per group for vehicle group). Vehicle control group were given vehicle alone, and treatment groups were received Compound 4, LDK378 or Crizotinib as indicated doses via oral administration once daily for 21 days. The mice tumor volumes in each group were measured twice per week.

IC50 (SU-DHL-1 cells) | SMILES | further results
75.4 to 154 nM | C[C@@H](Oc1cc(-c2cnn(C3CCNCC3)c2)cnc1N)c1c(Cl)ccc(F)c1Cl [Crizotinib] | Mean relative tumor volume (RTV) ± S.E. (NCI-H2228 cells; D0, 50 mg/kg): 100.00; Mean relative tumor volume (RTV) ± S.E. (NCI-H2228 cells; D4, 50 mg/kg): 67.71±; Mean relative tumor volume (RTV) ± S.E. (NCI-H2228 cells; D7, 50 mg/kg): 54.10; Mean relative tumor volume (RTV) ± S.E. (NCI-H2228 cells; D11, 50 mg/kg): 44.71; Mean relative tumor volume (RTV) ± S.E. (NCI-H2228 cells; D14, 50 mg/kg): 42.69; Mean relative tumor volume (RTV) ± S.E. (NCI-H2228 cells; D18, 50 mg/kg): 41.44; Mean relative tumor volume (RTV) ± S.E. (NCI-H2228 cells; D21, 50 mg/kg): 43.69
10.9 nM | Cc1cc(Nc2nc(Nc3ccccc3S(=O)(=O)C(C)C)c3c(C)n[nH]c3n2)c2c(c1C1CCN(C)CC1)C[C@@H](C)O2 [Example 4] | Mean relative tumor volume (RTV) ± S.E. (NCI-H2228 cells; D0, 10 mg/kg): 100.00; Mean relative tumor volume (RTV) ± S.E. (NCI-H2228 cells; D4, 10 mg/kg): 52.92; Mean relative tumor volume (RTV) ± S.E. (NCI-H2228 cells; D7, 10 mg/kg): 36.55; Mean relative tumor volume (RTV) ± S.E. (NCI-H2228 cells; D11, 10 mg/kg): 29.20; Mean relative tumor volume (RTV) ± S.E. (NCI-H2228 cells; D14, 10 mg/kg): 18.82; Mean relative tumor volume (RTV) ± S.E. (NCI-H2228 cells; D18, 10 mg/kg): 9.48; Mean relative tumor volume (RTV) ± S.E. (NCI-H2228 cells; D21, 10 mg/kg): 5.28
52.7 nM | COCC1Cc2c(c(Nc3nc(Nc4ccccc4S(=O)(=O)C(C)C)c4c(C)n[nH]c4n3)cc(C)c2C2CCNCC2)O1 (stereo not drawn) [Example 8, N-4-(2-(isopropylsulfonyl)phenyl)-N-6-(2-(methoxymethyl)-5-methyl-4-(piperidin-4-yl)-2,3-dihydrobenzofuran-7-yl)-3-methyl-1H-pyrazolo[3,4-d]pyrimidine-4,6-diamine] | 
34.6 nM | Cc1cc(Nc2nc(Nc3ccccc3S(=O)(=O)C(C)C)c3c(C)n[nH]c3n2)c2c(c1C1CCN(C)CC1)C[C@H](C)O2 [Example 6] | 
59 nM | CCS(=O)(=O)N1CCC(c2c(C)cc(Nc3ncc(Cl)c(Nc4ccccc4S(=O)(=O)C(C)C)n3)c3c2C[C@@H](C)O3)CC1 [Example 52, (R)-5-chloro-N-2-(4-(1-(ethylsulfonyl)piperidin-4-yl)-2,5-dimethyl-2,3-dihydrobenzofuran-7-yl)-N-4-(2-(isopropylsulfonyl)phenyl)pyrimidine-2,4-diamine] | 
81.2 nM | Cc1cc(Nc2ncc(Cl)c(Nc3ccccc3S(=O)(=O)C(C)C)n2)c2c(c1C1CCN(C(=O)C(C)C)CC1)C[C@@H](C)O2 [Example 50, (R)-1-(4-(7-((5-chloro-4-((2-(isopropylsulfonyl)phenyl)amino)pyrimidin-2-yl)amino)-2,5-dimethyl-2,3-dihydrobenzofuran-4-yl)piperidin-1-yl)-2-methylpropan-1-one] | 
6.6 nM | Cc1cc(Nc2ncc(Cl)c(Nc3ccccc3S(=O)(=O)C(C)C)n2)c2c(c1C1CCN(C)CC1)CCO2 [Example 14] | 
52.4 nM | Cc1cc(Nc2ncc(Cl)c(Nc3ccccc3S(=O)(=O)C(C)C)n2)c2c(c1C1CCN(C(=O)C3CC3)CC1)C[C@@H](C)O2 [Example 51, (R)-(4-(7-((5-chloro-4-((2-(isopropylsulfonyl)phenyl)amino)pyrimidin-2-yl)amino)-2,5-dimethyl-2,3-dihydrobenzofuran-4-yl)piperidin-1-yl)(cyclopropyl)methanone] | 
61 nM | Cc1cc(Nc2nc(Nc3ccccc3S(=O)(=O)C(C)C)c3c(C)n[nH]c3n2)c2c(c1C1CCNCC1)C[C@@H](C)O2 [Example 3, (R)—N-6-(2,5-dimethyl-4-(piperidin-4-yl)-2,3-dihydrobenzofuran-7-yl)-N-4-(2-(isopropylsulfonyl)-phenyl)-3-methyl-1H-pyrazolo[3,4-d]pyrimidine-4,6-diamine] | 
12.5 nM | Cc1cc(Nc2ncc(Cl)c(Nc3ccccc3S(=O)(=O)C(C)C)n2)c2c(c1C1CCN(C(=O)CO)CC1)C[C@@H](C)O2 [Example 37, (R)-1-(4-(7-((5-chloro-4-((2-(isopropylsulfonyl)phenyl)amino)pyrimidin-2-yl)amino)-2,5-dimethyl-2,3-dihydrobenzofuran-4-yl)piperidin-1-yl)-2-hydroxyethanone] | 
39.5 nM | Cc1cc(Nc2ncc(Cl)c(Nc3ccccc3S(=O)(=O)C(C)C)n2)c2c(c1C1CCN(C(=O)CN(C)C)CC1)C[C@H](C)O2 [Example 45, (S)-1-(4-(7-((5-chloro-4-((2-(isopropylsulfonyl)phenyl)amino)pyrimidin-2-yl)amino)-2,5-dimethyl-2,3-dihydrobenzofuran-4-yl)piperidin-1-yl)-2-(dimethylamino)ethanone] | 
110 nM | Cc1cc(Nc2ncc(Cl)c(Nc3ccccc3S(=O)(=O)C(C)C)n2)c2c(c1C1CCN(S(=O)(=O)C(C)C)CC1)C[C@@H](C)O2 [Example 53] | 
12.3 nM | Cc1cc(Nc2ncc(Cl)c(Nc3ccccc3S(=O)(=O)C(C)C)n2)c2c(c1C1CCN(C[C@@H](C)O)CC1)C[C@@H](C)O2 [Example 23, (R)-1-(4-((R)-7-((5-chloro-4-((2-(isopropylsulfonyl)phenyl)amino)pyrimidin-2-yl)amino)-2,5-dimethyl-2,3-dihydrobenzofuran-4-yl)piperidin-1-yl)propan-2-ol] | 
141 nM | CO[C@@H](C)C(=O)N1CCC(c2c(C)cc(Nc3ncc(Cl)c(Nc4ccccc4S(=O)(=O)C(C)C)n3)c3c2C[C@H](C)O3)CC1 [Example 58, (S)-1-(4-((S)-7-((5-chloro-4-((2-(isopropylsulfonyl)phenyl)amino)pyrimidin-2-yl)amino)-2,5-dimethyl-2,3-dihydrobenzofuran-4-yl)piperidin-1-yl)-2-methoxypropan-1-one] | 
97.8 nM | CCC(=O)N1CCC(c2c(C)cc(Nc3ncc(Cl)c(Nc4ccccc4S(=O)(=O)C(C)C)n3)c3c2C[C@@H](C)O3)CC1 [Example 49, (R)-1-(4-(7-((5-chloro-4-((2-(isopropylsulfonyl)phenyl)amino)pyrimidin-2-yl)amino)-2,5-dimethyl-2,3-dihydrobenzofuran-4-yl)piperidin-1-yl)propan-1-one] | 
19.3 nM | COCCN1CCC(c2c(C)cc(Nc3ncc(Cl)c(Nc4ccccc4S(=O)(=O)C(C)C)n3)c3c2C[C@@H](C)O3)CC1 [Example 32, (R)-5-chloro-N-4-(2-(isopropylsulfonyl)phenyl)-N-2-(4-(1-(2-methoxyethyl)piperidin-4-yl)-2,5-dimethyl-2,3-dihydrobenzofuran-7-yl)pyrimidine-2,4-diamine] | 
98.3 nM | Cc1cc(Nc2ncc(Cl)c(Nc3ccccc3S(=O)(=O)C(C)C)n2)c2c(c1C1CCNCC1)C[C@@H](C)O2 [Example 9, (R)-5-chloro-N-2-(2,5-dimethyl-4-(piperidin-4-yl)-2,3-dihydrobenzofuran-7-yl)-N-4-(2-(isopropylsulfonyl)phenyl)pyrimidine-2,4-diamine] | 
107 nM | Cc1cc(Nc2ncc(Cl)c(Nc3ccccc3S(=O)(=O)C(C)C)n2)c2c(c1C1CCN(C(N)=O)CC1)C[C@H](C)O2 [Example 43, (S)-4-(7-((5-chloro-4-((2-(isopropylsulfonyl)phenyl)amino)pyrimidin-2-yl)amino)-2,5-dimethyl-2,3-dihydrobenzofuran-4-yl)piperidine-1-carboxamide] | 
< 4.1 nM | Cc1cc(Nc2ncc(Cl)c(Nc3ccccc3S(=O)(=O)C(C)C)n2)c2c(c1C1CCNCC1)CCO2 [Example 13] | 
120 nM | COC(=O)N1CCC(c2c(C)cc(Nc3ncc(Cl)c(Nc4ccccc4S(=O)(=O)C(C)C)n3)c3c2C[C@H](C)O3)CC1 [Example 40, (S)-methyl 4-(7-((5-chloro-4-((2-(isopropylsulfonyl)phenyl)amino)pyrimidin-2-yl)amino)-2,5-dimethyl-2,3-dihydrobenzofuran-4-yl)piperidine-1-carboxylate] | 
11.6 nM | CC(=O)N1CCC(c2c(C)cc(Nc3ncc(Cl)c(Nc4ccccc4S(=O)(=O)C(C)C)n3)c3c2C[C@@H](C)O3)CC1 [Example 16, (R)-1-(4-(7-((5-chloro-4-((2-(isopropylsulfonyl)phenyl)amino)pyrimidin-2-yl)amino)-2,5-dimethyl-2,3-dihydrobenzofuran-4-yl)piperidin-1-yl)ethanone] | 
37.2 nM | Cc1cc(Nc2ncc(Cl)c(Nc3ccccc3S(=O)(=O)C(C)C)n2)c2c(c1C1CCN(CC(=O)N(C)C)CC1)C[C@H](C)O2 [Example 27, (S)-2-(4-(7-((5-chloro-4-((2-(isopropylsulfonyl)phenyl)amino)pyrimidin-2-yl)amino)-2,5-dimethyl-2,3-dihydrobenzofuran-4-yl)piperidin-1-yl)-N,N-dimethylacetamide] | 
